{
  "source": "patent US12097204B2",
  "about": "“Solid pharmaceutical composition containing 1,3,5-triazine derivative or salt thereof” (CHIA TAI TIANQING PHARMACEUTICAL GROUP CO., LTD., priority 2018, dated 2024)",
  "assay": "Solubility of the compound of formula I",
  "assay_type": "physicochemical",
  "data": [
    {"smiles": "CC(C)(C)ONc1nc(Nc2ccnc(C(F)(F)F)c2)nc(-c2cccc(C(F)(F)F)n2)n1", "note": "[compound of formula I, 4-(tert-butoxyamino)-6-(6-(trifluoromethyl)pyridin-2-yl)-N-(2-(trifluoromethyl)pyridin-4-yl)-1,3,5-triazin-2-amine]", "values": [
      {"measurement": "Solubility in either acidic or basic condition", "setting": "acidic or basic condition", "value": "poor solubility"},
      {"measurement": "Solubility in water", "setting": "water", "value": "hardly soluble"}
    ]}
  ]
}
